# Assay results from patent US20180243190A1, “ACTIVATORS OF NRF2-DEPENDENT PHOTOPROTECTION AND RELATED USES THEREOF” (THE ARIZONA BOARD OF REGENTS ON BEHALF OF THE UNIVERSITY OF …, priority 2015, published 2018).
# Assays:
# cutaneous NRF2 = experiment: Cutaneous NRF2 activation after systemic administration (immunoblot, IHC, RT-PCR of skin); type: in vivo, SKH-1 mice
# Source text: To explore the potential systemic photoprotective activity of bixin in a murine skin sunburn model, the feasibility of upregulating cutaneous NRF2 activity by systemic administration was first examined. It has been reported earlier that efficient cutaneous accumulation of dietary carotenoids requires prolonged nutritional supplementation over weeks and that pharmacokinetic parameters of cutaneous delivery of dietary carotinoids differ between humans and mice. Therefore, in order to circumvent the more complex pharmacokinetics associated with dietary supplementation, an intraperitoneal (i.p.) route for bixin systemic administration followed by examination of cutaneous NRF2 status was chosen. After i.p. injection of bixin (200 mg/kg) performed in Nrf2^+/+ and Nrf2^−/− mice, plasma was collected at 0, 1, 2, 4, 8, 16, 24, 48 and 72 h after injection followed by HPLC-photodiode array detection (FIG. 4A-C). […] Next, efficacy of various bixin treatment regimens (differing with regard to total dose and time after injection) for maximum activation of the NRF2 pathway in murine skin was determined (FIG. 4D).
# Next, the feasibility of bixin-induced cutaneous protection was studied in a solar UV photodamage model. Nrf2^+/+ and Nrf2^−/− mice were i.p. injected with either corn oil (carrier control) or bixin (200 mg/kg) 48 h before solar UV exposure (240 mJ/cm^2 UVB; 4.4 J/cm^2 UVA). 24 h after UV exposure back skin tissue was then collected followed by immunohistochemical (IHC) analysis. […] Moreover, UV exposure alone activated the NRF2 response in murine skin, effects not detectable in Nrf2^−/− mice (FIG. 5).
# (§1) Total RNA was extracted from HaCaT cells and mouse skin tissues using TRIzol (Invitrogen). Equal amounts of mRNA were used to generate cDNA using the M-MLV Reverse Transcriptase synthesis kit according to the manufacturer's instructions (Promega). RT-PCR and primer sequences of NRF2, KEAP1, GCLM, AKR1C1 and GAPDH were described previously to evaluate mRNA expression using the LightCycler 480 system (Roche). Quantification of cDNA amount for mouse Nrf2, Keap1, Gclm, and Akr1c1 in each skin tissue sample was performed using the KAPA SYBR FAST qPCR Kit (Kapa Biosystems).
# Nrf2^+/+ and Nrf2^−/− SKH-I mice were obtained by breeding Nrf2 heterozygous mice generated by back-crossing Nrf2^−/− C57BL/6 mice onto the SKH-1 hairless mouse genetic background for at least six generations (JAX® Mice, The Jackson Laboratory). All animals received water and food ad libitum and were handled according to the Guide for the Care and Use of Laboratory Animals; the protocols were approved by the University of Arizona Institutional Animal Care and Use Committee. Eight-week-old Nrf2^+/+ and Nrf2^−/− mice were randomly allocated into four groups (n=6): (i) control (corn oil); (ii) bixin (200 mg/kg, dissolved in corn oil); (iii) UV; (iv) bixin+UV. Bixin was administered through intraperitoneal (i.p.) injection 48 h before UV exposure.
# 24 h after UV exposure, the mice were euthanized and back skin was collected and divided into two parts: one part was frozen in liquid nitrogen for total RNA extraction and protein analysis; the other part was fixed in 10% buffered formalin and embedded in paraffin for histological and immunohistochemical analyses. Tissue sections (4 μm) were baked and deparaffinized. Hematoxylin and eosin (H&E) staining was performed for pathological examination. […]
# [1] = test system: NRF2, KEAP1, GCLM, AKR1C1 mRNA; experiment: Quantitative real-time RT-PCR in HaCaT cells; type: cell-based, human; conditions: 40 μM, 4 h and 16 h
# Source text: as §1
# NRF2 = experiment: Immunoblot analysis (NRF2/KEAP1/targets) in HaCaT keratinocytes; type: cell-based, human
# Description: Experiments were performed according to previously published procedures. Cells were harvested in sample buffer (50 mM Tris-HCl [pH 6.8], 2% sodium dodecyl sulfate (SDS), 10% glycerol, 100 mM dithiothreitol (DTT), and 0.1% bromophenol blue), boiled and sonicated. Total cell lysates were resolved by SDS-PAGE and subjected to immunoblot analyses with the indicated antibodies. For the ubiquitination assay, cells were cotransfected with expression vectors for NRF2 and HA-tagged ubiquitin (HA-Ub). Cells were left untreated or treated with either 5 μM sulforaphane (SF) or 40 μM bixin along with 10 μM MG132 for 4 h. Cells were harvested in buffer containing 2% SDS, 150 mM NaCl, 10 mM Tris-HCl (pH 8.0), and 1 mM DTT and boiled immediately. For immunoprecipitation, 1 μg of NRF2 antibody was incubated with the cell lysates at 4° C. overnight with protein A agarose beads (Invitrogen). Immunoprecipitated complexes were washed four times with RIPA buffer and eluted in sample buffer by boiling for 5 min. Samples were resolved by SDS-PAGE and immunoblotted with HA antibody. To measure the half-life of NRF2, HaCaT cells were either left untreated or treated with 5 μM bixin for 4 h, then 50 μM cycloheximide was added to block protein synthesis. Total cell lysates were collected at different time points and subjected to immunoblot analysis with NRF2 antibody. The relative intensity of the bands was quantified using the ChemiDoc CRS gel documentation system and Quantity One software (BioRad).
compound,measurement,setting,value
COC(=O)/C=C/C(C)=C\C=C\C(C)=C\C=C\C=C(C)\C=C\C=C(C)\C=C\C(=O)O [bixin],skin mRNA levels of Nrf2,cutaneous NRF2; 200 mg/kg i.p.,did not increase
same,skin protein or mRNA levels of Keap1,cutaneous NRF2; 200 mg/kg i.p.,no effects
same,"upregulation of cutaneous protein levels of NRF2 and its targets (GCLM and AKR1C1), comparison of regimens","cutaneous NRF2; 200 mg/kg, 72 h after injection, Nrf2+/+ mice",most effective
same,"cutaneous NRF2 pathway (NRF2, GCLM, AKR1C1 protein and mRNA)","cutaneous NRF2; Nrf2+/+ mice, 200 mg/kg i.p.",dramatically induced
same,activation of NRF2 pathway related activity within skin cells,cutaneous NRF2; dosage amounts less than 10 mg/kg,insufficient
same,NRF2 or KEAP1 mRNA levels,[1],without affecting
same,"NRF2 target genes at the mRNA level (GCLM, AKR1C1)",[1],pronounced upregulation
same,NRF2 target proteins GCLM and AKR1C1,NRF2,upregulated
same,bixin-induced Nrf2 upregulation after 24 h preincubation using NAC,NRF2,did not attenuate
same,duration of NRF2 upregulation,NRF2; bixin 20 μM,sustained over the course of the 24 h treatment
same,time to detectable induction of NRF2 protein levels,NRF2; bixin 20 μM,≤ 2 h
same,KEAP1 protein levels,"NRF2; bixin 20 μM, 0-48 h",no changes
same,duration of GCLM upregulation,"NRF2; bixin 20 μM, 48 h",persisted over an extended period
same,"bixin-induced upregulation of Nrf2 protein levels under cotreatment with anti-oxidants (tiron, trolox, NAC)","NRF2; bixin 40 μM, 4 h, 1 h antioxidant pretreatment",not attenuated
